Assay results: US20260337240A1, “CC16-DERIVED ANALOGS FOR THE TREATMENT OF INFLAMMATORY AND OBSTRUCTIVE LUNG DISEASES” (priority 2023, published 2026)
Non-standard residues stand in square brackets, D forms with d. Residues, ends and D or L forms follow the SMILES beside them. Nle = CCCC[C@H](N)C(=O)O

Experiments:
[1] = test system: human Rhinovirus in primary nasal cells; assay: Peptidomimetic screen in human nasal cells: RV infectivity (RT-PCR); format: cell-based; conditions: for RV infectivity / RV inhibition activity: RV MOI 0.1 for 4 hrs, then compound for 48 hrs, triplicate, RT-PCR (FIG. 10 top panel)
Description: (§1) Top panel, RV infectivity; middle panel, IFN-lamda; bottom panel, TNF-alpha levels. All determined by RT-PCR.
(§2) CC16-derived peptidomimetics provide protection against human Rhinovirus infection in airway epithelial cells. Preliminary studies were done in primary nasal cells grown at an ALI. Transwell cells were challenged with RV ([…] (MOI) 0.1) for 4 hrs, after which external RV was washed from the cell surface and test compounds added; uninfected baseline controls will be treated the same by pipetting media. Cells are allowed to incubate for an additional 48 hrs. Three readouts were used for analysis in this screen: RV infectivity, INF-lambda induction, and TNF-alpha induction. An optimal compound for this screening will have a reduction in RV infection, maintain high levels of INF-lambda, and have low levels of TNF-alpha.
(§3) RV burden, INF-lambda, and TNF-alpha are assessed by RT-PCR. Those compounds moving forward will be tested in a dose-response to determine optimal concentrations needed for IC50.

[2] = test system: TNF-alpha; assay: Peptidomimetic screen in human nasal cells: TNF-alpha induction (RT-PCR); format: cell-based; conditions: 2.5 μM; RV MOI 0.1 for 4 hrs, then compound for 48 hrs; RT-PCR (FIG. 10 bottom panel)
Description: as §1, §2, §3

[3] = test system: INF-lambda; assay: Peptidomimetic screen in human nasal cells: INF-lambda induction (RT-PCR); format: cell-based; conditions: 2.5 μM; RV MOI 0.1 for 4 hrs, then compound for 48 hrs; RT-PCR (FIG. 10 middle panel)
Description: as §1, §2, §3

[4] = test system: RV in primary human nasal epithelial cells (HNECs); assay: RV infection in primary human nasal epithelial cells (HNECs) at ALI, post-infection treatment (qPCR); format: cell-based; conditions: 25 g/ml (so in the source); added after 4 hrs RV infection, 48 hrs incubation; non-asthma participants; p<0.01 by ANOVA (FIG. 6)
Method: Cells were grown at ALI for 3 weeks and infected with RV for 4 hours, after which they were washed and allowed to incubate for 48 hours with or without rCC16 or C836. RV was determined by qPCR. Each dot is a technical replicate, ** p<0.01 by ANOVA.
rCC16 and CC16-derived peptidomimetics reduce RV infection in human nasal cells. In order to test if rCC16 added exogenously could protect against RV viral infection, primary human nasal epithelial cells (HNECs) were grown from non-asthma participants at an air-liquid interface (ALI) for 21 days. On the day of infection, RV was added to the apical surface and allowed to incubate for 4 hrs, after which cells were gently washed with media, and either media alone, rCC16 (25 g/ml), or CC16-derived peptidomimetic, C836 (25 g/ml), were added and cells allowed to incubate for an additional 48 hrs. After harvest, RV infectivity was determined by PCR for RV.

[5] = test system: house dust mite (HDM) allergic airway disease; neutrophils in lavage fluid; assay: Neutrophil recruitment into the lung in HDM model, IV treatment; format: in vivo, mice; conditions: IV 2 hrs after each HDM challenge; lavage fluid 24 hrs after last HDM challenge; preliminary (FIG. 8 left)
Method: (§4) Left panel, C836, was delivered via IV 2 hrs after each HDM challenge. Cells in the lavage fluid were measured 24 hrs after the last HDM challenge. Right panel, baseline lung function, without methacholine provocation, as assessed in the mice receiving C836 IV, 24 hrs after the last HDM challenge. ** p<0.01, **** p<0.0001 by ANOVA.
Thus, a small peptidomimetic was designed based on the newly discovered LVD (leucine-valine-aspartic acid) integrin binding domain contained within the CC16 protein. The lead compound, C836, is a 17-mer containing the LVD integrin binding domain. […] Neutrophils, when present in the lungs of individuals with asthma, are typically associated with more severe and difficult to treat forms of the condition. In COPD, neutrophils are often highly destructive, releasing factors and enzymes that degrade the basement membrane and damage the delicate airway epithelium. Therefore, strategies to reduce neutrophil accumulation or activity in both asthma and COPD would provide significant benefits for overall lung health, potentially improving disease outcomes and reducing airway damage.

[6] = test system: airway hyperresponsiveness (AHR); assay: Airway hyperresponsiveness (AHR) to methacholine in HDM-exposed Cc16^−/− mice (flexiVent); format: in vivo; conditions: oropharyngeal, approximately 1 hr after each HDM dose on days 0, 7, 14; methacholine 24 hrs after last HDM; p<0.05 at the highest dose (FIG. 9)
Method: C836 was delivered to the airways 2 hrs after each HDM challenge. AHR to methacholine was assessed 24 hrs after the last HDM challenge. * p<0.05 at the highest dose.
C836 reduces AHR in Cc16^−/− mice exposed to HDM. The activity of C836 was tested for its ability to provide protection in the allergic airway model induced by exposure to HDM. For this, CC16^−/− mice were used, and the C836 (or vehicle control) was delivered to the airway via the oropharyngeal method approximately 1 hr after each HDM dose on days 0, 7, and 14. Mice were assessed 24 hrs after the last HDM challenge by flexi Vent® and methacholine challenge.

[7] = test system: lung function in HDM-treated mice; assay: Baseline lung function (FEV0.2, invasive PFT) without methacholine provocation in HDM-treated mice; format: in vivo; conditions: IV, 24 hrs after last HDM challenge (FIG. 8 right)
Method: as §4
Lung function tests are typically performed using methacholine provocation, which induces bronchoconstriction. However, the tests referenced here were conducted without provocation, meaning that when C836 was administered alongside an HDM challenge, it prevented the loss of lung function typically associated with HDM exposure. These tests were conducted at baseline, without the use of a bronchoconstrictor, similar to an asthma patient living a normal day without an attack.

[8] = test system: airway hyperresponsiveness and respiratory infections; assay: rCC16 delivered intravenously (retro-orbital) or oropharyngeally: airway hyperresponsiveness and respiratory infections; format: in vivo; conditions: IV via retro-orbital injection or oropharyngeal delivery (both)
Description: (§5) In the examples provided below, human recombinant CC16 (rCC16) was delivered either intravenously (IV) via retro-orbital injection or directly to the lungs through oropharyngeal delivery.

[9] = test system: human Rhinovirus (RV; RVIB); assay: RV burden in CC16^−/− mice given rCC16 (RT-PCR); format: in vivo; conditions: female CC16^−/− mice; RV 4×10^7 PFU/50 μl intranasal; rCC16 given at time of infection; RT-PCR at 48 hrs; p<0.05 by t-test (FIG. 4)
Method: RT-PCR at 48 hrs. * p<0.05 by t-test.
rCC16 treatment decreases human Rhinovirus (RV; RVIB) burden in CC16^−/− mice: For these studies, female mice were infected with RV (4×10^7 plaque-forming unit (PFU)/50 μl) via intranasal instillation for 48 hrs, and mice were either given vehicle (saline) or rCC16 (human recombinant CC16) at the time of infection.

[10] = test system: leukocyte recruitment into the lungs; assay: rCC16 delivered intravenously or oropharyngeally: leukocyte recruitment into the lungs; format: in vivo; conditions: only intravenous delivery
Description: as §5

[11] = test system: respiratory challenges; conditions: direct delivery; cited from earlier work

## CCCC[C@H](NC(=O)[C@H](CC(=O)O)NC(=O)[C@H](CCC(N)=O)NC(=O)[C@H](CC(=O)O)NC(C)=O)C(=O)N[C@@H](CCCNC(=N)N)C(=O)N[C@@H](CCC(=O)O)C(=O)N[C@@H](C)C(=O)NCC(=O)N[C@@H](C)C(=O)N[C@@H](CCC(N)=O)C(=O)N[C@@H](CC(C)C)C(=O)N[C@@H](CCCCN)C(=O)N[C@@H](CCCCN)C(=O)N[C@@H](CC(C)C)C(=O)N[C@H](C(N)=O)C(C)C [Compound 971, Ac-Asp-Gln-Asp-Nle-Arg-Glu-Ala-Gly-Ala-Gln-Leu-Lys-Lys-Leu-Val-NH2] (Ac-DQD[Nle]REAGAQLKKLV-NH2)
[1]; 2.5 μM
  RV infectivity / RV inhibition activity: had RV inhibition activity

## Ac-Nle-Arg-Glu-Ala-Gly-Ala-Gln-Leu-Lys-Lys-Leu-Val-Asp-Thr-NH2 (Ac-[Nle]REAGAQLKKLVDT-NH2; SMILES CCCC[C@H](NC(C)=O)C(=O)N[C@@H](CCCNC(=N)N)C(=O)N[C@@H](CCC(=O)O)C(=O)N[C@@H](C)C(=O)NCC(=O)N[C@@H](C)C(=O)N[C@@H](CCC(N)=O)C(=O)N[C@@H](CC(C)C)C(=O)N[C@@H](CCCCN)C(=O)N[C@@H](CCCCN)C(=O)N[C@@H](CC(C)C)C(=O)N[C@H](C(=O)N[C@@H](CC(=O)O)C(=O)N[C@H](C(N)=O)[C@@H](C)O)C(C)C) [Compound 974]
[1]; 2.5 μM
  RV infectivity / RV inhibition activity: had RV inhibition activity
[2]
  TNF-alpha levels: has a spike in TNF-alpha
[3]
  INF-lambda levels: maintain INF-lambda levels

## CCCC[C@H](NC(=O)[C@H](CC(=O)O)NC(=O)[C@H](CCC(N)=O)NC(C)=O)C(=O)N[C@@H](CCCNC(=N)N)C(=O)N[C@@H](CCC(=O)O)C(=O)N[C@@H](C)C(=O)NCC(=O)N[C@@H](C)C(=O)N[C@@H](CCC(N)=O)C(=O)N[C@@H](CC(C)C)C(=O)N[C@@H](CCCCN)C(=O)N[C@@H](CCCCN)C(=O)N[C@@H](CC(C)C)C(=O)N[C@H](C(=O)N[C@@H](CC(=O)O)C(=O)N[C@H](C(N)=O)[C@@H](C)O)C(C)C [Compound 972, Ac-Gln-Asp-Nle-Arg-Glu-Ala-Gly-Ala-Gln-Leu-Lys-Lys-Leu-Val-Asp-Thr-NH2] (Ac-QD[Nle]REAGAQLKKLVDT-NH2)
[1]; 2.5 μM
  RV infectivity / RV inhibition activity: had RV inhibition activity
[1]; 2.5 μM, RV-infected nasal cells
  overall outcome of the screen for the 3 factors (RV infectivity, INF-lambda, TNF-alpha): best candidate to move forward
[3]
  INF-lambda levels: maintain INF-lambda levels

## CCCC[C@H](NC(=O)[C@H](CC(=O)O)NC(=O)[C@H](CCC(N)=O)NC(=O)[C@H](CC(=O)O)NC(C)=O)C(=O)N[C@@H](CCCNC(=N)N)C(=O)N[C@@H](CCC(=O)O)C(=O)N[C@@H](C)C(=O)NCC(=O)N[C@@H](C)C(=O)N[C@@H](CCC(N)=O)C(=O)N[C@@H](CC(C)C)C(=O)N[C@@H](CCCCN)C(=O)N[C@@H](CCCCN)C(=O)N[C@@H](CC(C)C)C(=O)N[C@H](C(=O)N[C@@H](CC(=O)O)C(=O)N[C@H](C(N)=O)[C@@H](C)O)C(C)C [Compound C836, DQD-Nle-REAGAQLKKLVDT] (Ac-DQD[Nle]REAGAQLKKLVDT-NH2)
[4]
  reduction of RV infection in human nasal cells: approximately 80%
[1]; 2.5 μM
  RV infectivity / RV inhibition activity: have activity in reducing RV infectivity
[5]
  neutrophils recruited into the lung during HDM challenge: fewer neutrophils are recruited into the lung
[6]
  airway hyperresponsiveness (AHR) compared to HDM-treated given vehicle: significantly lower airway hyperresponsiveness (AHR)
[7]
  loss of lung function as measured by FEV0.2: protective from loss of lung function

## CCCC[C@H](NC(=O)[C@H](CC(=O)O)NC(=O)[C@H](CCC(N)=O)NC(=O)[C@H](CC(=O)O)NC(C)=O)C(=O)N[C@@H](CCCNC(=N)N)C(=O)N[C@@H](CCC(=O)O)C(=O)N[C@@H](C)C(=O)NCC(=O)N[C@@H](C)C(=O)N[C@@H](CCC(N)=O)C(=O)N[C@@H](CC(C)C)C(=O)N[C@@H](CCCCN)C(=O)N[C@@H](CCCCN)C(=O)N[C@@H](CC(C)C)C(=O)N[C@H](C(=O)N[C@@H](CC(=O)O)C(=O)O)C(C)C [Compound 970, Ac-Asp-Gln-Asp-Nle-Arg-Glu-Ala-Gly-Ala-Gln-Leu-Lys-Lys-Leu-Val-Asp-OH] (Ac-DQD[Nle]REAGAQLKKLVD-OH)
[1]; 2.5 μM
  RV infectivity / RV inhibition activity: had RV inhibition activity

B1: rCC16: human recombinant CC16 (club cell secretory protein) (protein, UniProt P11684 22-91, looked up)
Uteroglobin: EICPSFQRVIETLLMDTPSSYEAAMELFSPDQDMREAGAQLKKLVDTLPQKPRESIIKLMEKIAQSSLCN
[4]
  reduction of RV infection in human nasal cells: approximately 80%
[1]; rCC16, RV infection of nasal cells, read-out: dose found to be optimal to inhibit 50% of infection
  IC50: 2500 nM
[8]
  protection against airway hyperresponsiveness and respiratory infections: effective in providing protection
[9]
  RV burden compared to vehicle-treated mice: significant reduction in RV
[10]
  leukocyte recruitment into the lungs: reduce leukocyte recruitment into the lungs
[11]
  protection during respiratory challenges: protective

B2: rCC16 made at UA (MJ): standard control, rCC16 made at UA (MJ) (protein, UniProt P11684 22-91, looked up)
Uteroglobin: EICPSFQRVIETLLMDTPSSYEAAMELFSPDQDMREAGAQLKKLVDTLPQKPRESIIKLMEKIAQSSLCN
[1]; 2.5 μM
  RV infectivity / RV inhibition activity: have activity in reducing RV infectivity

B3: rCC16 from R&D: standard control, rCC16 from R&D (protein, UniProt P11684 22-91, looked up)
Uteroglobin: EICPSFQRVIETLLMDTPSSYEAAMELFSPDQDMREAGAQLKKLVDTLPQKPRESIIKLMEKIAQSSLCN
[1]; 2.5 μM
  RV infectivity / RV inhibition activity: have activity in reducing RV infectivity
